Laboratory results: the NIST ThermoML archive (doi:10.1016/j.jct.2019.05.021)
± gives the expanded uncertainty stated by the source.

Assay: xn = mol fraction of the nth substance listed
Conditions: 100 kPa, Liquid; for viscosity: Falling or rolling sphere viscometry; for mass density: Vibrating tube method

SMILES: CCCCCCCCCCCCCC(=O)OC [methyl tetradecanoate] + CC1CCCCC1
- viscosity (293.15 K, x2 = 0): 4.557 ± 0.1 mPa·s
- viscosity (293.15 K, x2 = 0.1): 4.065 ± 0.09 mPa·s
- viscosity (293.15 K, x2 = 0.2): 3.591 ± 0.079 mPa·s
- viscosity (293.15 K, x2 = 0.3): 3.141 ± 0.069 mPa·s
- viscosity (293.15 K, x2 = 0.4003): 2.706 ± 0.059 mPa·s
- viscosity (293.15 K, x2 = 0.5001): 2.304 ± 0.05 mPa·s
- viscosity (293.15 K, x2 = 0.6): 1.925 ± 0.042 mPa·s
- viscosity (293.15 K, x2 = 0.6999): 1.578 ± 0.034 mPa·s
- viscosity (293.15 K, x2 = 0.8): 1.267 ± 0.027 mPa·s
- viscosity (293.15 K, x2 = 0.8999): 0.982 ± 0.021 mPa·s
- mass density (293.15 K, x2 = 0): 867.17 ± 1.8 kg/m3
- mass density (293.15 K, x2 = 0.1): 862.3 ± 1.8 kg/m3
- mass density (293.15 K, x2 = 0.2): 856.82 ± 1.7 kg/m3
- mass density (293.15 K, x2 = 0.3): 850.69 ± 1.7 kg/m3
- mass density (293.15 K, x2 = 0.4003): 843.72 ± 1.7 kg/m3
- mass density (293.15 K, x2 = 0.5001): 835.76 ± 1.7 kg/m3
- mass density (293.15 K, x2 = 0.6): 826.55 ± 1.7 kg/m3
- mass density (293.15 K, x2 = 0.6999): 815.89 ± 1.6 kg/m3
- mass density (293.15 K, x2 = 0.8): 803.17 ± 1.6 kg/m3
- mass density (293.15 K, x2 = 0.8999): 787.98 ± 1.6 kg/m3
- viscosity (298.15 K, x2 = 0): 3.979 ± 0.088 mPa·s
- viscosity (298.15 K, x2 = 0.1): 3.575 ± 0.079 mPa·s
- viscosity (298.15 K, x2 = 0.2): 3.176 ± 0.07 mPa·s
- viscosity (298.15 K, x2 = 0.3): 2.792 ± 0.061 mPa·s
- viscosity (298.15 K, x2 = 0.4003): 2.424 ± 0.053 mPa·s
- viscosity (298.15 K, x2 = 0.5001): 2.072 ± 0.045 mPa·s
- viscosity (298.15 K, x2 = 0.6): 1.743 ± 0.038 mPa·s
- viscosity (298.15 K, x2 = 0.6999): 1.438 ± 0.031 mPa·s
- viscosity (298.15 K, x2 = 0.8): 1.163 ± 0.025 mPa·s
- viscosity (298.15 K, x2 = 0.8999): 0.91 ± 0.02 mPa·s
- mass density (298.15 K, x2 = 0): 863.35 ± 1.8 kg/m3
- mass density (298.15 K, x2 = 0.1): 858.46 ± 1.7 kg/m3
- mass density (298.15 K, x2 = 0.2): 853 ± 1.7 kg/m3
- mass density (298.15 K, x2 = 0.3): 846.86 ± 1.7 kg/m3
- mass density (298.15 K, x2 = 0.4003): 839.87 ± 1.7 kg/m3
- mass density (298.15 K, x2 = 0.5001): 831.9 ± 1.7 kg/m3
- mass density (298.15 K, x2 = 0.6): 822.64 ± 1.7 kg/m3
- mass density (298.15 K, x2 = 0.6999): 811.92 ± 1.6 kg/m3
- mass density (298.15 K, x2 = 0.8): 799.13 ± 1.6 kg/m3
- mass density (298.15 K, x2 = 0.8999): 783.83 ± 1.6 kg/m3
- viscosity (303.15 K, x2 = 0): 3.519 ± 0.078 mPa·s
- viscosity (303.15 K, x2 = 0.1): 3.179 ± 0.07 mPa·s
- viscosity (303.15 K, x2 = 0.2): 2.838 ± 0.062 mPa·s
- viscosity (303.15 K, x2 = 0.3): 2.507 ± 0.055 mPa·s
- viscosity (303.15 K, x2 = 0.4003): 2.19 ± 0.048 mPa·s
- viscosity (303.15 K, x2 = 0.5001): 1.884 ± 0.041 mPa·s
- viscosity (303.15 K, x2 = 0.6): 1.6 ± 0.035 mPa·s
- viscosity (303.15 K, x2 = 0.6999): 1.327 ± 0.029 mPa·s
- viscosity (303.15 K, x2 = 0.8): 1.078 ± 0.023 mPa·s
- viscosity (303.15 K, x2 = 0.8999): 0.848 ± 0.018 mPa·s
- mass density (303.15 K, x2 = 0): 859.54 ± 1.8 kg/m3
- mass density (303.15 K, x2 = 0.1): 854.64 ± 1.7 kg/m3
- mass density (303.15 K, x2 = 0.2): 849.17 ± 1.7 kg/m3
- mass density (303.15 K, x2 = 0.3): 843.02 ± 1.7 kg/m3
- mass density (303.15 K, x2 = 0.4003): 836.01 ± 1.7 kg/m3
- mass density (303.15 K, x2 = 0.5001): 828.01 ± 1.7 kg/m3
- mass density (303.15 K, x2 = 0.6): 818.71 ± 1.6 kg/m3
- mass density (303.15 K, x2 = 0.6999): 807.93 ± 1.6 kg/m3
- mass density (303.15 K, x2 = 0.8): 795.07 ± 1.6 kg/m3
- mass density (303.15 K, x2 = 0.8999): 779.65 ± 1.6 kg/m3
- viscosity (308.15 K, x2 = 0): 3.093 ± 0.069 mPa·s
- viscosity (308.15 K, x2 = 0.1): 2.803 ± 0.062 mPa·s
- viscosity (308.15 K, x2 = 0.2): 2.515 ± 0.055 mPa·s
- viscosity (308.15 K, x2 = 0.3): 2.234 ± 0.049 mPa·s
- viscosity (308.15 K, x2 = 0.4003): 1.962 ± 0.043 mPa·s
- viscosity (308.15 K, x2 = 0.5001): 1.695 ± 0.037 mPa·s
- viscosity (308.15 K, x2 = 0.6): 1.445 ± 0.031 mPa·s
- viscosity (308.15 K, x2 = 0.6999): 1.205 ± 0.026 mPa·s
- viscosity (308.15 K, x2 = 0.8): 0.987 ± 0.021 mPa·s
- viscosity (308.15 K, x2 = 0.8999): 0.782 ± 0.017 mPa·s
- mass density (308.15 K, x2 = 0): 855.74 ± 1.7 kg/m3
- mass density (308.15 K, x2 = 0.1): 850.83 ± 1.7 kg/m3
- mass density (308.15 K, x2 = 0.2): 845.36 ± 1.7 kg/m3
- mass density (308.15 K, x2 = 0.3): 839.19 ± 1.7 kg/m3
- mass density (308.15 K, x2 = 0.4003): 832.16 ± 1.7 kg/m3
- mass density (308.15 K, x2 = 0.5001): 824.11 ± 1.7 kg/m3
- mass density (308.15 K, x2 = 0.6): 814.78 ± 1.6 kg/m3
- mass density (308.15 K, x2 = 0.6999): 803.92 ± 1.6 kg/m3
- mass density (308.15 K, x2 = 0.8): 791 ± 1.6 kg/m3
- mass density (308.15 K, x2 = 0.8999): 775.46 ± 1.6 kg/m3
- viscosity (313.15 K, x2 = 0): 2.797 ± 0.062 mPa·s
- viscosity (313.15 K, x2 = 0.1): 2.552 ± 0.056 mPa·s
- viscosity (313.15 K, x2 = 0.2): 2.302 ± 0.051 mPa·s
- viscosity (313.15 K, x2 = 0.3): 2.054 ± 0.045 mPa·s
- viscosity (313.15 K, x2 = 0.4003): 1.803 ± 0.039 mPa·s
- viscosity (313.15 K, x2 = 0.5001): 1.564 ± 0.034 mPa·s
- viscosity (313.15 K, x2 = 0.6): 1.336 ± 0.029 mPa·s
- viscosity (313.15 K, x2 = 0.6999): 1.121 ± 0.024 mPa·s
- viscosity (313.15 K, x2 = 0.8): 0.918 ± 0.02 mPa·s
- viscosity (313.15 K, x2 = 0.8999): 0.735 ± 0.016 mPa·s
- mass density (313.15 K, x2 = 0): 851.94 ± 1.7 kg/m3
- mass density (313.15 K, x2 = 0.1): 847.02 ± 1.7 kg/m3
- mass density (313.15 K, x2 = 0.2): 841.53 ± 1.7 kg/m3
- mass density (313.15 K, x2 = 0.3): 835.34 ± 1.7 kg/m3
- mass density (313.15 K, x2 = 0.4003): 828.29 ± 1.7 kg/m3
- mass density (313.15 K, x2 = 0.5001): 820.21 ± 1.6 kg/m3
- mass density (313.15 K, x2 = 0.6): 810.83 ± 1.6 kg/m3
- mass density (313.15 K, x2 = 0.6999): 799.9 ± 1.6 kg/m3
- mass density (313.15 K, x2 = 0.8): 786.91 ± 1.6 kg/m3
- mass density (313.15 K, x2 = 0.8999): 771.26 ± 1.6 kg/m3
- viscosity (318.15 K, x2 = 0): 2.544 ± 0.056 mPa·s
- viscosity (318.15 K, x2 = 0.1): 2.325 ± 0.051 mPa·s
- viscosity (318.15 K, x2 = 0.2): 2.101 ± 0.046 mPa·s
- viscosity (318.15 K, x2 = 0.3): 1.879 ± 0.041 mPa·s
- viscosity (318.15 K, x2 = 0.4003): 1.661 ± 0.036 mPa·s
- viscosity (318.15 K, x2 = 0.5001): 1.45 ± 0.031 mPa·s
- viscosity (318.15 K, x2 = 0.6): 1.249 ± 0.027 mPa·s
- viscosity (318.15 K, x2 = 0.6999): 1.052 ± 0.023 mPa·s
- viscosity (318.15 K, x2 = 0.8): 0.868 ± 0.019 mPa·s
- viscosity (318.15 K, x2 = 0.8999): 0.695 ± 0.015 mPa·s
- mass density (318.15 K, x2 = 0): 848.14 ± 1.7 kg/m3
- mass density (318.15 K, x2 = 0.1): 843.22 ± 1.7 kg/m3
- mass density (318.15 K, x2 = 0.2): 837.71 ± 1.7 kg/m3
- mass density (318.15 K, x2 = 0.3): 831.5 ± 1.7 kg/m3
- mass density (318.15 K, x2 = 0.4003): 824.42 ± 1.7 kg/m3
- mass density (318.15 K, x2 = 0.5001): 816.31 ± 1.6 kg/m3
- mass density (318.15 K, x2 = 0.6): 806.88 ± 1.6 kg/m3
- mass density (318.15 K, x2 = 0.6999): 795.9 ± 1.6 kg/m3
- mass density (318.15 K, x2 = 0.8): 782.82 ± 1.6 kg/m3
- mass density (318.15 K, x2 = 0.8999): 767.04 ± 1.5 kg/m3
- viscosity (323.15 K, x2 = 0): 2.308 ± 0.051 mPa·s
- viscosity (323.15 K, x2 = 0.1): 2.115 ± 0.047 mPa·s
- viscosity (323.15 K, x2 = 0.2): 1.92 ± 0.042 mPa·s
- viscosity (323.15 K, x2 = 0.3): 1.728 ± 0.038 mPa·s
- viscosity (323.15 K, x2 = 0.4003): 1.534 ± 0.033 mPa·s
- viscosity (323.15 K, x2 = 0.5001): 1.345 ± 0.029 mPa·s
- viscosity (323.15 K, x2 = 0.6): 1.161 ± 0.025 mPa·s
- viscosity (323.15 K, x2 = 0.6999): 0.985 ± 0.021 mPa·s
- viscosity (323.15 K, x2 = 0.8): 0.819 ± 0.018 mPa·s
- viscosity (323.15 K, x2 = 0.8999): 0.658 ± 0.014 mPa·s
- mass density (323.15 K, x2 = 0): 844.34 ± 1.7 kg/m3
- mass density (323.15 K, x2 = 0.1): 839.41 ± 1.7 kg/m3
- mass density (323.15 K, x2 = 0.2): 833.87 ± 1.7 kg/m3
- mass density (323.15 K, x2 = 0.3): 827.63 ± 1.7 kg/m3
- mass density (323.15 K, x2 = 0.4003): 820.53 ± 1.7 kg/m3
- mass density (323.15 K, x2 = 0.5001): 812.38 ± 1.6 kg/m3
- mass density (323.15 K, x2 = 0.6): 802.92 ± 1.6 kg/m3
- mass density (323.15 K, x2 = 0.6999): 791.88 ± 1.6 kg/m3
- mass density (323.15 K, x2 = 0.8): 778.71 ± 1.6 kg/m3
- mass density (323.15 K, x2 = 0.8999): 762.81 ± 1.5 kg/m3
